Data published in ChEMBL document CHEMBL4373711, “Development of 3,5-Dinitrophenyl-Containing 1,2,4-Triazoles and Their Trifluoromethyl Analogues as Highly Efficient Antitubercular Agents Inhibiting Decaprenylphosphoryl-β-d-ribofuranose 2'-Oxidase” (J Med Chem, 2019).
In brackets after ≈: the same amount, converted by molar mass.

Columns and labels:
[1] = Genotoxicity in Salmonella typhimurium TA100 at 30 uM in absence of rat liver S9 fraction by Ames test; type: toxicity; settings: salmonella enterica subsp. enterica serovar typhimurium, s9, 30 µM
[2] = test system: Mycobacterium tuberculosis; assay: Antitubercular activity against Mycobacterium tuberculosis H37Rv; type: functional

Row | SMILES | Activity [1] | MIC [2] [µM]
1 | [N-]=[N+]=[N-].[Na+] [SODIUM AZIDE] | Toxic | 
2 | COc1nc2ccc(Br)cc2cc1[C@@H](c1ccccc1)[C@@](O)(CCN(C)C)c1cccc2ccccc12 [BEDAQUILINE] |  | 0.05 (≈ 0.0278 µg/mL)
